This note sets out measurements from patent US7947740B2, “Bimatoprost crystalline form I” (Finetech Pharmaceutical Ltd, priority 2006, dated 2011).

The structures appear in SMILES notation.

A short description of data set [1]: Storage stability (retest period) of the crystalline form. The class given is physicochemical. On the procedure:
(§1) Stability data supports the retest period of not less than 6 months if bimatoprost crystalline form I is stored in an appropriate container at 2 to 8° C. and at 25° C.

A short description of data set [2]: Thermodynamic stability of the crystalline modifications of bimatoprost. As to conditions: temperature range between −70 and +30° C. The class given is physicochemical. On the procedure: as §1
The importance of bimatoprost crystalline form I rests primarily (but not exclusively) in its thermodynamic stability. […] For example, the crystalline form I may be easily prepared by recrystallizing, triturating, or reslurring of crystalline form A.

Turning to `CCNC(=O)CCC/C=C\C[C@@H]1[C@@H](/C=C/[C@@H](O)CCc2ccccc2)[C@H](O)C[C@@H]1O` [Bimatoprost crystalline form I, (9S,11R,15S)-9,11,15-trihydroxy-17-phenyl-18,19,20-trinor-5Z,13E-prostadienoic acid ethylamide], the “retest period supported by stability data” value in data set [1] (stored in an appropriate container at 2 to 8° C.) and in data set [1] (stored in an appropriate container at 25° C.) was “not less than 6 months” throughout. In addition, the “relative stability among crystalline modifications of bimatoprost” value in data set [2] was “most stable crystalline modification”.
